# Measurements taken from patent US20220047616A1, “Method and Compositions for Treating HTLV-1 Virus Infection” (priority 2019, published 2022).
# Assays:
# HIV-1 [1] = details: reported; cited from earlier work
# HEP C = details: reported; cited from earlier work
# HCV H strain NS5B = HCV H strain NS5B (Hepatitis C virus genotype 1a, UniProt P27958); details: reported; cited from earlier work
# HSV-1 = details: reported; cited from earlier work
# HSV-2 = details: reported; cited from earlier work
# ENTV CVB1 = details: reported; cited from earlier work
# HEP B = details: reported; cited from earlier work
# ENTV EV71 = details: reported; cited from earlier work
# ADV-3 = details: reported; cited from earlier work
# ADV-11 = details: reported; cited from earlier work
# ADV-8 = details: reported; cited from earlier work
# Dengue virus = details: Cheung et al. 2014; cited from earlier work
# HTLV-1 [2] = assay: Infectivity of HTLV-1 particles from treated SLB1 cells on primary huPBMCs (p19Gag ELISA); type: cell-based; details: lowest concentration 10 μg/ml, relative to vehicle control
# HIV-1 [3] = details: cited from earlier work
# HTLV-1 [4] = assay: HTLV-1 replication and release of p19Gag-containing particles from SLB1 cells (Anti-HTLV-1 p19Gag ELISA); type: cell-based; details: SLB1 cells, 10, 50, 100 μg/ml, 72 hrs
# [5] = system: HTLV-1+ SLB1 lymphoma T-cell-line; assay: Cytotoxicity/apoptosis in HTLV-1+ SLB1 lymphoma T-cells (Annexin V-FITC/PI); details: 72 hrs
# rhinovirus = assay: Antiviral activity against rhinovirus infection; details: concentrations and assays employed herein
# [6] = system: DENV2 (08-10381 Montserrat strain); assay: Protection of DENV2-induced cytopathic effect (CPE) with Neutral Red readout; type: cell-based, Dengue virus; details: CPE-based assay, Vero cells, 7 days
# Procedure: (§1) A CPE-based antiviral assay was performed by infecting target cells in the presence or absence of test compositions, at a range of concentrations. […] cytopathic effects and cell death. […] For CPE-based assays, cell viability was determined with a neutral red readout. Viable cells incorporate neutral red in their lysosomes. Uptake of neutral red relies on the ability of live cells to maintain a lower pH inside their lysosomes than in the cytoplasm, and this active process requires ATP. Once inside the lysosome, the neutral red dye becomes charged and is retained intracellularly. […] The amount of neutral red in solution was quantified by reading the absorbance (optical density) of each well at 490 nm […]
# (§2) Cytotoxic effects were evaluated in uninfected cells by comparing viability in the presence of inhibitors to the viability of mock-treated cells. Cytotoxicity was determined by an XTT viability assay, which was conducted at the same timepoint as the readout for the corresponding infection assay.
# (§3) Test compositions were dissolved in 100% methanol. […] When possible, the EC50 and CC50 of the composition was determined for each assay using GraphPad Prism software. […]
# Protection of DENV2-induced cytopathic effect (CPE) with Neutral Red readout: For the DENV2 antiviral assay, the 08-10381 Montserrat strain was used. […]
# Marburgvirus (MARV/Ci67) = type: cell-based; details: compositions added to cells, then virus, 1 hr; FIGS. 3-4
# HTLV-1 [7] = assay: HTLV-1 transmission in SLB1/huPBMC co-culture (p19Gag ELISA); type: cell-based; details: SLB1 pre-treated 15 min or 3 hrs, co-culture 72 hrs
# ZIKV (PLCal_ZV strain) = assay: Protection of ZIKV-induced cytopathic effect (CPE) with Neutral Red readout; type: cell-based, Zikavirus; details: CPE-based assay, Vero cells, 6 days
# Procedure: as §1, §2, §3
# Protection of ZIKV-induced cytopathic effect (CPE) with Neutral Red readout: For the ZIKV antiviral assay, the PLCal_ZV strain was used. […]
# HTLV-1 [8] = assay: Virological synapse formation and HTLV-1 transmission in co-culture (fluorescence microscopy, gp21-positive huPBMCs); type: cell-based; details: SLB1/pLenti-GFP pre-treated 3 hrs, 10, 50, 100 μg/ml
# Ebolavirus (EBOV/Kik) = type: cell-based; details: compositions added to cells, then virus, 1 hr; FIGS. 1-2
# Chain of HCV H strain NS5B (P27958 2421-3011): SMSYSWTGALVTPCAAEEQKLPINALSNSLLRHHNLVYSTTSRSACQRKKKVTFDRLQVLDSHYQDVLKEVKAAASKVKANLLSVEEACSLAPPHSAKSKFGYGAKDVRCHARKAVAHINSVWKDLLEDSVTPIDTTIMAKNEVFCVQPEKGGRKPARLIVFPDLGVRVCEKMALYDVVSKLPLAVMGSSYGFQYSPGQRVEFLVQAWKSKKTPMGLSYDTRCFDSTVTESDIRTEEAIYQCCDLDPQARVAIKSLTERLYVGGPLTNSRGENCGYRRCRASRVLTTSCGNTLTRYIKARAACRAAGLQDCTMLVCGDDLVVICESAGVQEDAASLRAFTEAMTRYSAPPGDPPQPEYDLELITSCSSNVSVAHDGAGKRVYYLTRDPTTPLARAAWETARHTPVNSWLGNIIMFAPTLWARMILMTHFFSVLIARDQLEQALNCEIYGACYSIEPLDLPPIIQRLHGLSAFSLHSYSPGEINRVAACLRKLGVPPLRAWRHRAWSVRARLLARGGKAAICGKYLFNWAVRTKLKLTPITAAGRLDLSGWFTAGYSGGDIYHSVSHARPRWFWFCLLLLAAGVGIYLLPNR
smiles,measurement,setting,value
"CC1(C)CC[C@]2(C(=O)O)CC[C@]3(C)C(=CC[C@@H]4[C@@]5(C)CC[C@H](O)C(C)(C)[C@@H]5CC[C@]43C)[C@@H]2C1 [Oleanolic acid, oleanolic acid]",anti-viral activity against HIV-1,HIV-1 [1],some anti-viral activity
same,anti-viral activity against HEP C,HEP C,some anti-viral activity
same,anti-viral activity against HCV H strain NS5B,HCV H strain NS5B,some anti-viral activity
"C[C@H]1[C@H](C)CC[C@]2(C(=O)O)CC[C@]3(C)C(=CC[C@@H]4[C@@]5(C)CC[C@H](O)C(C)(C)[C@@H]5CC[C@]43C)[C@H]12 [Ursolic acid, ursolic acid]",anti-viral activity against HSV-1,HSV-1,some anti-viral activity
same,anti-viral activity against HSV-2,HSV-2,some anti-viral activity
same,anti-viral activity against HIV-1,HIV-1 [1],some anti-viral activity
same,anti-viral activity against ENTV CVB1,ENTV CVB1,some anti-viral activity
same,anti-viral activity against HEP B,HEP B,some anti-viral activity
same,anti-viral activity against ENTV EV71,ENTV EV71,some anti-viral activity
same,anti-viral activity against ADV-3,ADV-3,some anti-viral activity
same,anti-viral activity against HEP C,HEP C,some anti-viral activity
same,anti-viral activity against ADV-11,ADV-11,some anti-viral activity
same,anti-viral activity against HCV H strain NS5B,HCV H strain NS5B,some anti-viral activity
same,anti-viral activity against ADV-8,ADV-8,some anti-viral activity
"C[C@H]1O[C@@H](O[C@H]2[C@@H](O)C[C@H](O[C@H]3[C@@H](O)C[C@H](O[C@H]4CC[C@@]5(C)[C@H](CC[C@@H]6[C@@H]5C[C@@H](O)[C@]5(C)[C@@H](C7=CC(=O)OC7)CC[C@]65O)C4)O[C@@H]3C)O[C@@H]2C)C[C@H](O)[C@@H]1O [digoxin, reference compound]",cellular viability of Vero E6 cells,Vero E6 cells,did not reduce cellular viability
CC(=O)O[C@H]1C[C@H](O[C@H]2[C@@H](O)C[C@H](O[C@H]3[C@@H](O)C[C@H](O[C@H]4CC[C@@]5(C)[C@H](CC[C@@H]6[C@@H]5C[C@@H](O)[C@]5(C)[C@@H](C7=CC(=O)OC7)CC[C@]65O)C4)O[C@@H]3C)O[C@@H]2C)O[C@H](C)[C@H]1O[C@@H]1O[C@H](CO)[C@@H](O)[C@H](O)[C@H]1O [lanatoside C],antiviral activity against Dengue virus,Dengue virus,demonstrates antiviral activity
CO[C@H]1C[C@H](O[C@H]2CC[C@@]3(C)[C@H](CC[C@@H]4[C@@H]3CC[C@]3(C)[C@@H](C5=CC(=O)OC5)[C@@H](OC(C)=O)C[C@]43O)C2)O[C@@H](C)[C@@H]1O [oleandrin],infectivity of newly-synthesized p19Gag-containing virus particles on huPBMCs,HTLV-1 [2],inhibited the infectivity
same,HIV-1 viral infectivity in vitro,HIV-1 [3],inhibit viral infectivity in vitro
same,incorporation of gp120 envelope glycoprotein of HIV-1 into mature virus particles,HIV-1 [3],prevent the incorporation
same,HTLV-1 replication / release of p19Gag-containing virus particles,HTLV-1 [4],does not significantly inhibit
same,cytotoxicity/apoptosis in SLB1 cells at the lowest concentration,[5]; 10 μg/ml,did not induce significant cytotoxicity/apoptosis
same,cytotoxicity in SLB1 cells compared with Vehicle control,[5],not significantly higher than the Vehicle control
same,anti-viral activity against HIV-1,HIV-1 [1],demonstrated anti-HIV activity
same,activity against rhinovirus (viral replication),rhinovirus,inactive
same,cellular viability of Vero E6 cells,Vero E6 cells,did not reduce cellular viability
same,efficacy against Dengue virus,[6],demonstrates efficacy
same,"efficacy against Marburgvirus (dose response, based on oleandrin content)",Marburgvirus (MARV/Ci67),efficacious
same,transmission of HTLV-1 in co-culture (extracellular p19Gag),HTLV-1 [7],inhibited the transmission of HTLV-1 as compared to the vehicle control
same,efficacy against Zikavirus,ZIKV (PLCal_ZV strain),demonstrates efficacy
same,formation of virological synapses and transmission of HTLV-1,HTLV-1 [8],inhibited the formation of virological synapses and the transmission of HTLV-1 in vitro
same,"efficacy against Ebolavirus (dose response, based on oleandrin content)",Ebolavirus (EBOV/Kik),efficacious
